Numbers after ± are expanded uncertainties.
Conditions: Liquid, Bellows volumetry

## CCCC [butane]
380 K, 3000 kPa
  mass density: 463.27 ± 0.83 kg/m3
380 K, 5000 kPa
  mass density: 474.65 ± 0.85 kg/m3
380 K, 10000 kPa
  mass density: 494.93 ± 0.89 kg/m3
380 K, 20000 kPa
  mass density: 521.9 ± 0.94 kg/m3
380 K, 40000 kPa
  mass density: 555.85 ± 1 kg/m3
380 K, 60000 kPa
  mass density: 579.32 ± 1 kg/m3
380 K, 80000 kPa
  mass density: 597.57 ± 1.1 kg/m3
380 K, 100000 kPa
  mass density: 612.79 ± 1.1 kg/m3
380 K, 120000 kPa
  mass density: 625.93 ± 1.1 kg/m3
380 K, 140000 kPa
  mass density: 637.29 ± 1.1 kg/m3
380 K, 160000 kPa
  mass density: 647.82 ± 1.2 kg/m3
380 K, 180000 kPa
  mass density: 657.28 ± 1.2 kg/m3
380 K, 200000 kPa
  mass density: 665.98 ± 1.2 kg/m3
400 K, 5000 kPa
  mass density: 437.19 ± 0.79 kg/m3
400 K, 10000 kPa
  mass density: 466.97 ± 0.84 kg/m3
400 K, 20000 kPa
  mass density: 500.93 ± 0.9 kg/m3
400 K, 30000 kPa
  mass density: 522.83 ± 0.94 kg/m3
400 K, 40000 kPa
  mass density: 539.73 ± 0.97 kg/m3
400 K, 50000 kPa
  mass density: 553.54 ± 1 kg/m3
400 K, 60000 kPa
  mass density: 565.44 ± 1 kg/m3
400 K, 70000 kPa
  mass density: 575.77 ± 1 kg/m3
400 K, 80000 kPa
  mass density: 585.08 ± 1.1 kg/m3
400 K, 90000 kPa
  mass density: 593.33 ± 1.1 kg/m3
400 K, 100000 kPa
  mass density: 601.18 ± 1.1 kg/m3
400 K, 120000 kPa
  mass density: 614.9 ± 1.1 kg/m3
400 K, 140000 kPa
  mass density: 627.05 ± 1.1 kg/m3
400 K, 160000 kPa
  mass density: 637.77 ± 1.1 kg/m3
400 K, 180000 kPa
  mass density: 647.6 ± 1.2 kg/m3
400 K, 200000 kPa
  mass density: 656.49 ± 1.2 kg/m3
420 K, 10000 kPa
  mass density: 436.16 ± 0.79 kg/m3
420 K, 20000 kPa
  mass density: 479.15 ± 0.86 kg/m3
420 K, 30000 kPa
  mass density: 504.89 ± 0.91 kg/m3
420 K, 40000 kPa
  mass density: 523.9 ± 0.94 kg/m3
420 K, 50000 kPa
  mass density: 539.08 ± 0.97 kg/m3
420 K, 60000 kPa
  mass density: 551.8 ± 0.99 kg/m3
420 K, 70000 kPa
  mass density: 563.07 ± 1 kg/m3
420 K, 80000 kPa
  mass density: 572.94 ± 1 kg/m3
420 K, 90000 kPa
  mass density: 581.86 ± 1.1 kg/m3
420 K, 100000 kPa
  mass density: 589.89 ± 1.1 kg/m3
420 K, 120000 kPa
  mass density: 604.27 ± 1.1 kg/m3
420 K, 140000 kPa
  mass density: 617.11 ± 1.1 kg/m3
420 K, 160000 kPa
  mass density: 628.25 ± 1.1 kg/m3
420 K, 180000 kPa
  mass density: 638.65 ± 1.1 kg/m3
420 K, 200000 kPa
  mass density: 647.73 ± 1.2 kg/m3
440 K, 10000 kPa
  mass density: 401.28 ± 0.72 kg/m3
440 K, 20000 kPa
  mass density: 457.43 ± 0.82 kg/m3
440 K, 30000 kPa
  mass density: 487.23 ± 0.88 kg/m3
440 K, 40000 kPa
  mass density: 508.57 ± 0.92 kg/m3
440 K, 50000 kPa
  mass density: 525.26 ± 0.95 kg/m3
440 K, 60000 kPa
  mass density: 539.13 ± 0.97 kg/m3
440 K, 70000 kPa
  mass density: 551.03 ± 0.99 kg/m3
440 K, 80000 kPa
  mass density: 561.56 ± 1 kg/m3
440 K, 90000 kPa
  mass density: 571.14 ± 1 kg/m3
440 K, 100000 kPa
  mass density: 579.66 ± 1 kg/m3
440 K, 120000 kPa
  mass density: 594.85 ± 1.1 kg/m3
440 K, 140000 kPa
  mass density: 608.04 ± 1.1 kg/m3
440 K, 160000 kPa
  mass density: 619.73 ± 1.1 kg/m3
440 K, 180000 kPa
  mass density: 630.34 ± 1.1 kg/m3
440 K, 200000 kPa
  mass density: 639.98 ± 1.1 kg/m3

From the NIST ThermoML archive (doi:10.1016/j.jct.2007.06.014)
